Measured values reported in patent EP0372603A2, “Antibacterial oral composition” (Colgate-Palmolive Company, priority 1988, dated 1990).

Key:
[1] = system: Actinomyces viscosus cells; experiment: Antibacterial effect: full strength rinses exposed to cells for 60 seconds, CFU count; format: cell-based
Description: The antibacterial effect of chlorhexidine in the presence of aminoguanidine is determined by exposing the following full strength rinses to Actinomyces viscosus cells for 60 seconds.

[2] = In vitro stain retention on hydroxyapatite (bovine serum albumin/acetaldehyde browning model); settings: 0.12, 0.25 and 1.0% of aminoguanidine gluconate with 0.12% CHX
Description: The following in vitro method correlates with and simulates the reaction whereby hydroxyapatite tooth mineral material is stained brown:
2.0 g hydroxyapatite (HAP), 10 ml of 25% Bovine Serum Albumin in 0.1M phosphate buffer (pH 7.0), 2.5 ml of 0.1M phosphate buffer containing mono-basic and di-basic sodium orthophosphate (pH 7), 25.0 ml of a test sample and 12.5 ml of 30% buffered acetaldehyde (pH 7) are mixed for 24 hrs. at 37 °C. The HAP is filtered and dried at 37 °C. The color retained on the HAP powder is qualified with a Gardner Color Difference Meter.

[3] = system: in vitro plaque which is formed by Actinomyces viscosus and strep mutans on extracted human teeth; experiment: Antiplaque effect on in vitro plaque on extracted human teeth (visual score and erythrosine dye extraction); format: cell-based
Description: The antiplaque effect of chlorhexidine in the presence of aminoguanidine is determined by rinsing in vitro plaque which is formed by Actinomyces viscosus and strep mutans on extracted human teeth for 30 seconds once per day for three days with the full strength rinses below. The plaque growth is induced on teeth by daily transferring the teeth to an inoculated fresh medium (tryptocase soy broth). The amount of plaque is scored visually as well as after disclosing with erythrosine dye. The dye is then extracted with ethanol. The amount of the dye adsorbed is directly proportional to the amount of the plaque on teeth. The dye concentration is measured spectrophotometrically at wavelength 533nm.

[4] = Gingivitis/plaque/stain evaluation in monkeys sprayed with rinse once daily for 6 weeks; format: in vivo, squirrel monkeys; design: key to Final Gingival Index: 0 = clinically normal gingiva to 4 = obvious redness with bleeding; Initial Stain Index / Final Stain Index: scale not given here; settings: for Final Gingival Index: once daily spray 30 seconds; for Initial Gingival Index: baseline before treatment, scale 0-4; for Initial Plaque Index: modified Quigley-Hein index
Description: Adult squirrel monkeys are prepared for a gingivitis/plaque/stain evaluation including thorough prophylaxis. 36 surfaces (maxillary and mandibular; mesial, buccal and distal) are initially evaluated for plaque by a modified Quigley-Hein index and gingival inflation by the following scale: 0 - clinically normal; pink, form, knife-like gingival margin, triangular interdental papilla; 1 - change in the form of gingiva; gingival margin may be slightlyenlarged, no longer knife-like and firm, no color change; 2 - slight color change of marginal gingiva of interdental papilla, discrete areas of redness at most cornal surfaces of the free gingiva; 3- obvious color change in marginal gingiva or interdental papilla, no bleeding on probing; 4 - obvious color change; redness obvious; in addition, bleeding on probing or spontaneous bleeding.
The squirrel monkeys are then divided into 3 groups of four and each is treated in a double blind manner once daily for 6 weeks. All dentitions are sprayed for 30 seconds from polyethylene bottles containing rinse solution.
Initial and 6 week evaluations for three studies for plaque formation and gingival inflamation and 6 week evaluations for stain (indicate general protocol) follow, with stain TABLE 4

With `N=C(N)NN` [Aminoguanidine, Hydrazine Carboximidamide (aminoguanidine)] the “antibacterial effect (in words)” value ([1]; 0.25% Aminoguanidine alone) was “no antibacterial effect”, the “effect on antibacterial activity of chlorhexidine (in words)” value ([1]; 0.25% Aminoguanidine with CHX) was “does not compromise antibacterial activity of chlorhexidine” and the “chlorhexidine induced stain (in words)” value [2] was “reduces the chlorhexidine induced stain at least to about the level of the placebo”. The “antiplaque activity (in words)” value ([3]; 0.25% Aminoguanidine alone) was “no antiplaque activity” and the “effect on antiplaque activity of chlorhexidine (in words)” value ([3]; 0.25% Aminoguanidine with CHX) was “does not compromise the antiplaque activity of chlorhexidine”.
In the case of `[H]/N=C(\N/C(=N/[H])NCCCCCCNC(=N)NC(=N)Nc1ccc(Cl)cc1)Nc1ccc(Cl)cc1` [CHX, chlorhexidine gluconate], the “Final Plaque Index” value ([4]; Study A, after 6 weeks) is reported as 1.24, the “Final Gingival Index” value ([4]; Study A, after 6 weeks) is reported as 0.49 and the “Initial Gingival Index” value ([4]; Study A) is reported as 0.43. The “Initial Plaque Index” value ([4]; Study A, baseline) was 0.55, the “Final Plaque Index” value ([4]; Study B, after 6 weeks) was 0.47 and the “Final Stain Index” value ([4]; Study B, after 6 weeks) was 0.62. For the same compound, the “Final Gingival Index” value ([4]; Study B, after 6 weeks) was 0.47, the “Initial Stain Index” value ([4]; Study B, baseline) was 0.01 and the “Initial Gingival Index” value ([4]; Study B) was 0.54. For the same compound, the “Initial Plaque Index” value ([4]; Study B, baseline) was 0.15, the “Final Plaque Index” value ([4]; Study C, after 6 weeks) was 0.83 and the “Final Gingival Index” value ([4]; Study C, after 6 weeks) was 0.63. The “Initial Gingival Index” value ([4]; Study C) was 0.56 and the “Initial Plaque Index” value ([4]; Study C, baseline) was 0.53.
